Experimental data taken from paper PMC6631887, “In vitro and in vivo characterization of anti-malarial acylphenoxazine derivatives prepared from basic blue 3” (Malaria Journal, 2019).
Several values for one entry are separate records, joined by “and”; a condition that tells them apart may be missing. Equal entries are not always repeated. Where two headings read alike, the source gives them in different places.

How the values were obtained:
[1] = test system: Plasmodium falciparum field isolate MRA-1240 (ART-resistant); assay: In vitro anti-malarial efficacy (growth inhibition), XN-30 analyzer, MRA-1240 isolate; assay type: cell-based; details: read-out: IC50 MRA-1240
[2] = test system: Plasmodium falciparum field isolate MRA-1239 (ART-sensitive); assay: In vitro anti-malarial efficacy (growth inhibition), XN-30 analyzer, MRA-1239 isolate; assay type: cell-based; details: read-out: IC50 MRA-1239
[3] = test system: Plasmodium falciparum W2 (CQ- and PYR-resistant); assay: In vitro anti-malarial efficacy (growth inhibition), XN-30 analyzer, W2 strain; assay type: cell-based; details: read-out: IC50 W2
[4] = test system: Plasmodium falciparum 3D7 (CQ- and PYR-sensitive); assay: In vitro anti-malarial efficacy (growth inhibition), XN-30 analyzer, 3D7 strain; assay type: cell-based; details: read-out: IC50 3D7
[5] = Cytotoxic assay (Cell Counting Kit-8), HEK293T; assay type: cell-based; details: human, HEK293T cells; 48 h culture, CCK-8; mean ± SEM, three experiments
Experimental: (§1) HepG2 (JCRB1054) and HEK293T cell lines were obtained from the Japanese Collection of Research Bioresources (JCRB, Osaka, Japan) and Prof. Yoshiharu Matsuura (Osaka University, Osaka, Japan), respectively. The cells were cultured in Dulbecco’s modified Eagle’s medium (DMEM (1.0 g/L glucose) with L-glutamine and sodium pyruvate; Nacalai Tesque, Kyoto, Japan) supplemented with 10% (v/v) fetal bovine serum (FBS; Gibco-BRL, Grand Island, NY, USA) in a humidified incubator with 5% CO2 at 37 °C. For the cytotoxic assay, the cells (5 × 10^3/well) were seeded in a 96-well plate. […] Cell viability was measured using a Cell Counting Kit-8 (Dojindo) according to the manufacturer’s instructions. Briefly, 10 µL CCK-8 reagent was added to each well containing culture medium and incubated for 2 h under standard culture conditions. The absorbance of the sample was measured at 450 nm using a PowerWave HT microplate spectrophotometer (BioTek Instruments, Winooski, VT, USA). The cell viability was expressed as a percentage of the absorbance of the untreated control cells after subtracting the appropriate background intensity. The CC50 (mean ± SEM) was calculated as described in IC50. The SI, which is the ratio between the cytotoxicity and anti-malarial activity, was calculated according to the following equation. SI=mean CC50/mean IC50.

[6] = Cytotoxic assay (Cell Counting Kit-8), HepG2; assay type: cell-based; details: human, HepG2 cells; 48 h culture, CCK-8; mean ± SEM, three experiments
Experimental: as §1

Plasmodium berghei NK65 = assay: In vivo anti-malarial activity, rodent malaria model, oral administration; design: species or system Plasmodium berghei (in ICR mice); details: for MSD (mean survival day) / % suppression on day 4: mice; for MSD (mean survival day): observed to day 30; for % suppression on day 4: repeated for 3 consecutive days, parasitaemia vs control
Experimental: The in vivo anti-malarial efficacy of ITT-001 to 006 was evaluated using the rodent malaria parasite P. berghei NK65 as described by Fidock et al., with some modifications. The parasite was maintained by syringe passage every week in female ICR mice (4–8-week-old; body weight, 25–27 g, Sankyo Lab Service, Tokyo, Japan). On day 0, a 200 µL aliquot of saline containing 2 × 10^7 iRBCs prepared from the pre-infected mice was injected intravenously into the mice. After 4 h, basic blue 3 and ITT-001 to 006 dissolved or suspended in 5% (w/v) methyl cellulose 400 solution (FUJIFILM Wako Pure Chemical, Osaka, Japan) were orally administered (100 mg/kg body weight of basic blue 3 and ITT-001 to 006 and 50 mg/kg body weight of ITT-004) to the mice (four and five groups for basic blue 3 and ITT-001 to 006, respectively). The control group (five mice/group) was treated with approximately 100 µL of the vehicle. This treatment was repeated for 3 consecutive days. On day 4, peripheral blood samples were obtained from the tail veins of the mice and thin blood smears stained with Diff-Quik stain kit (Sysmex) were observed under a Leica DM6000B microscope (Leica Microsystems, Wetzlar, Germany). Parasitaemia was determined by counting over 10 fields of view. The suppression rate (%) was calculated as the difference in parasitaemia between the test and control groups. The mean survival day (MSD) was calculated from the number of the surviving mice on day 30. The surviving mice were cured on day 30. Kaplan–Meier curves were generated to graphically display the efficacy using GraphPad Prism version 5.0.

[7] = Measurement of fluorescence spectrum (self-fluorescence); assay type: physicochemical; details: 10 µM in saline containing 1% DMSO, excitation 592 nm, emission 630-730 nm
Experimental: Fluorescence spectrum of basic blue 3 and ITT-001 to 006 (10 µM) was obtained in saline containing 1% DMSO at room temperature. The compounds were excited at 592 nm (bandpass width, 5 nm) and their emission spectra, 630 nm to 730 nm, were measured with a RF-5300PC Spectro fluorophotometer (Shimadzu).

[8] = test system: Plasmodium falciparum 3D7 (ring-form-synchronized); assay: Characterization of anti-malarial activity in vitro, 24 h treatment, XN-30 analyzer and light microscopy; assay type: cell-based; details: 3D7, 24 h treatment; for concentration at which parasites were arrested or killed with the ring-form: XN-30 analyzer (Fig. 2i); for concentration at which trophozoites appeared: XN-30 analyzer (Fig. 2ii)
Experimental: The ring-form-synchronized parasite (3D7 strain) was treated with the indicated concentrations of basic blue 3 and ITT-001 to 006 for 24 h for flow cytometric and morphological analyses using an automated haematology analyzer, XN-30, and light microscope, respectively.
For the flow cytometric analysis, the XN30 analyzer was equipped with a prototype algorithm for cultured P. falciparum [prototype; software version: 01-03, (build 16)] and specific reagents were used ([…] DCL, SULFOLYSER, Lysercell M, and Fluorocell M) (Sysmex, Kobe, Japan). Approximately 100 µL of the culture suspension diluted with 100 µL phosphate-buffered saline was added into a BD Microtainer MAP Microtube for Automated Process K2 EDTA 1.0 mg tube (Becton–Dickinson and Co., Franklin Lakes, NJ, USA) and loaded onto the XN-30 analyzer with an auto-sampler as described in the instrument’s manual (Sysmex). […] Horizontal and vertical axes represent the intensities of side fluorescent light (SFL, which corresponds to DNA content) and forward scattered light (FSC, indicating iRBC size), respectively. Colours indicate the following based on the default setting: red, ring-form; orange, trophozoite; purple, schizont; and blue, polychromatic RBC. Once parasites replicate DNA, dots are plotted to the right side on the M scattergram according to the increase in DNA content. The parasitaemias (total, MI-RBC%; ring-form, RNG-RBC%; trophozoite, TRPZ-RBC%; and schizont, SCHZ-RBC%) were automatically reported.
A standard thin blood smear was fixed with 100% methanol for 10 min and stained with 10% Giemsa working solution, pH 7.2 (Merck KGaA, Darmstadt, Germany) for 13 min.

[9] = 48 h treatment, ring-form-synchronized, XN-30 analyzer, mean ± SEM, three experiments
[10] = Plasmodium falciparum, W2, 48 h, 48 h treatment, ring-form-synchronized, XN-30 analyzer, mean ± SEM, three experiments
[11] = Plasmodium falciparum, 3D7, 48 h, 48 h treatment, ring-form-synchronized, XN-30 analyzer, mean ± SEM, three experiments
[12] = oral 100 mg/kg, surviving mice considered cured

| Compound | IC50 [1, 9] | IC50 [2, 9] | IC50 [3, 10] | IC50 [4, 11] | CC50 at 48 h [5] | CC50 at 48 h [6] | MSD (mean survival day) (Plasmodium berghei NK65; oral 100 mg/kg) | % suppression on day 4 (Plasmodium berghei NK65; oral 100 mg/kg) | # of survived mice on day 30 (Plasmodium berghei NK65; [12]) | maximum fluorescence intensity [7] | also measured |
| --- | --- | --- | --- | --- | --- | --- | --- | --- | --- | --- | --- |
| C[C@@H]1CC[C@H]2[C@@H](C)C(=O)O[C@@H]3O[C@@]4(C)CC[C@@H]1[C@]32OO4 [ART, artemisinin, reference compound] | 13.2 ± 1.4 nM | 5.5 ± 0.018 nM | – | – | – | – | – | – | – | – | – |
| CCN(CC)CCCC(C)Nc1ccnc2cc(Cl)ccc12 (stereo not shown) [CQ, chloroquine, reference compound] | – | – | – | – | – | – | – | – | – | – | IC50 ([3]; Plasmodium falciparum, W2, 48 h): 225 ± 23.2 nM; IC50 ([4]; Plasmodium falciparum, 3D7, 48 h): 8.6 ± 0.21 nM; IC50 ([1]; 48 h): 58 ± 2.6 nM; IC50 ([2]; 48 h): 38.6 ± 5.2 nM |
| CCN(CC)c1ccc2c(c1)Oc1cc(N(CC)CC)ccc1N2C(C)=O [ITT-001, 1-(3,7-Bis(diethylamino)-10H-phenoxazin-10-yl)ethanone] | 39 ± 11.2 nM | 34.6 ± 9.1 nM | 11.1 ± 1.8 nM | 11.2 ± 1.3 nM | 320 ± 42 nM | 4000 ± 850 nM | 20.4 days | > 99% | 3/5 | – | – |
| CCN(CC)c1ccc2c(c1)Oc1cc(N(CC)CC)ccc1N2C(=O)C(C)(C)C [ITT-002, 1-(3,7-Bis(diethylamino)-10H-phenoxazin-10-yl)-2,2-dimethylpropan-1-one] | 24.4 ± 3.7 nM | 20.7 ± 1.6 nM | 10.4 ± 2.8 nM | 10.7 ± 1.5 nM | 200 ± 21 nM | > 50000 nM | 19.2 days | > 99% | 2/5 | – | – |
| CCN(CC)c1ccc2c(c1)Oc1cc(N(CC)CC)ccc1N2C(=O)C1CC1 [ITT-003] | 31.3 ± 9.8 nM | 24.9 ± 3.1 nM | 9.6 ± 2.1 nM | 9.8 ± 1 nM | 9200 ± 3800 nM | > 50000 nM | 21.0 days | > 99% | 2/5 | – | – |
| CCN(CC)c1ccc2c(c1)Oc1cc(N(CC)CC)ccc1N2C(=O)c1ccccc1 [ITT-004, (3,7-Bis(diethylamino)-10H-phenoxazin-10-yl)(phenyl)methanone] | 30.5 ± 2 nM | 26.4 ± 2.9 nM | 12.3 ± 2.7 nM | 11.3 ± 2.4 nM | 10500 ± 3400 nM | > 50000 nM | 29.4 days | > 99% | – | less than 3 a.u. | MSD (mean survival day) (Plasmodium berghei NK65; oral 50 mg/kg): 11.8 days; % suppression on day 4 (Plasmodium berghei NK65; oral 50 mg/kg): > 99%; # of survived mice on day 30 (Plasmodium berghei NK65; oral 50 mg/kg): 0/5; # of survived mice on day 30 (Plasmodium berghei NK65; oral 100 mg/kg, surviving mice considered cured, 100 mg/kg): four of five and 4 out of 5 and 4/5 |
| CCN(CC)CC(=O)N1c2ccc(N(CC)CC)cc2Oc2cc(N(CC)CC)ccc21.Cl [ITT-005, 1-(3,7-Bis(diethylamino)-10H-phenoxazin-10-yl)-2-(diethylamino)ethanone hydrochloride] | 184 ± 30.1 nM | 130 ± 9.3 nM | – | – | 730 ± 93 nM | 4600 ± 260 nM | 14.0 days | > 99% | 1/5 | – | concentration at which parasites were arrested or killed with the ring-form [8]: 5000 nM; concentration at which trophozoites appeared [8]: 150 nM |
| CCN(CC)c1ccc2c(c1)Oc1cc(N(CC)CC)ccc1N2C(=O)c1ccc(F)cc1 [ITT-006, (3,7-Bis(diethylamino)-10H-phenoxazin-10-yl)(4-fluorophenyl)methanone] | 29.4 ± 5.8 nM | 27.5 ± 3.4 nM | 16 ± 4.5 nM | 10.6 ± 1.6 nM | 13600 ± 3000 nM | > 50000 nM | 13.0 days | 91.5% | 0/5 | less than 3 a.u. | – |
| CCN(CC)c1ccc2nc3ccc(=[N+](CC)CC)cc-3oc2c1 [basic blue 3] | 5.9 ± 0.68 nM | 5.2 ± 1.1 nM | ~4 nM | ~4 nM | 21 ± 4.2 nM | 1000 ± 64 nM | 20.3 days | > 99% | 1/4 | 775 a.u. | IC50 [3, 9]: 4.8 ± 0.53 nM; concentration at which parasites were arrested or killed with the ring-form [8]: 15 nM; concentration at which trophozoites appeared [8]: 0.5 nM; IC50 [4, 9]: 3.2 ± 0.19 nM |
